The numbers were not newly measured in article PMC4807944 (International Journal of Nanomedicine, 2016), which cites them from elsewhere.

What is called Aqueous solubility is how much of the substance goes into solution per volume.

In the case of `C=CC[C@@H]1/C=C(\C)C[C@H](C)C[C@H](OC)[C@H]2O[C@@](O)(C(=O)C(=O)N3CCCC[C@H]3C(=O)O[C@H](/C(C)=C/[C@@H]3CC[C@@H](O)[C@H](OC)C3)[C@H](C)[C@@H](O)CC1=O)[C@H](C)C[C@@H]2OC` [FK506, Tacrolimus], the Aqueous solubility was 1 to 2 µg/mL.
